Source: ChEMBL document CHEMBL4130567, “Discovery of Thiophene[3,2-d]pyrimidine Derivatives as Potent HIV-1 NNRTIs Targeting the Tolerant Region I of NNIBP” (ACS Med Chem Lett, 2017)

What was measured:
[1] = system: Human immunodeficiency virus 1; test: Antiviral activity against HIV1 3B harboring reverse transcriptase E138K mutant infected in human MT4 cells assessed as inhibition of virus-induced cytopathic effect after 5 days by MTT assay; assay type: functional, organism-based; details: Human immunodeficiency virus 1, 3B, MT4, 120 h
[2] = system: Human immunodeficiency virus 1; test: Antiviral activity against HIV1 3B harboring reverse transcriptase K103N mutant infected in human MT4 cells assessed as inhibition of virus-induced cytopathic effect after 5 days by MTT assay; assay type: functional, organism-based; details: Human immunodeficiency virus 1, 3B, MT4, 120 h
[3] = system: Human immunodeficiency virus 1; test: Antiviral activity against HIV1 3B harboring reverse transcriptase Y181C mutant infected in human MT4 cells assessed as inhibition of virus-induced cytopathic effect after 5 days by MTT assay; assay type: functional, organism-based; details: Human immunodeficiency virus 1, 3B, MT4, 120 h
[4] = Cytotoxicity against human MT4 cells assessed as reduction in cell viability after 5 days by MTT assay; assay type: cell-based
[5] = biological target: Human immunodeficiency virus type 1 reverse transcriptase (Human immunodeficiency virus 1, UniProt Q72547); test: Inhibition of recombinant wild type HIV1 reverse transcriptase using DIG-labeled dUTP/biotin-labeled dUTP and dTTP as template and viral nucleotides assessed as decrease in biotin-dUTP incorporation after 1 hr by ELISA
[6] = Selectivity index, ratio of CC50 for human MT4 cells to EC50 for wild type HIV1 3B infected in human MT4 cells; assay type: toxicity, cell-based; details: MT4 cells infected with wild type HIV1 3B, read-out: Ratio CC50/EC50
[7] = system: Human immunodeficiency virus 2; test: Antiviral activity against HIV2 ROD infected in human MT4 cells assessed as inhibition of virus-induced cytopathic effect after 5 days by MTT assay; assay type: functional, organism-based; details: Human immunodeficiency virus 2, ISOLATE ROD, MT4, 120 h
[8] = system: Human immunodeficiency virus 1; test: Antiviral activity against HIV1 3B harboring reverse transcriptase L100I mutant infected in human MT4 cells assessed as inhibition of virus-induced cytopathic effect after 5 days by MTT assay; assay type: functional, organism-based; details: Human immunodeficiency virus 1, 3B, MT4, 120 h
[9] = system: Human immunodeficiency virus 1; test: Antiviral activity against HIV1 3B harboring reverse transcriptase F227L/V106A double mutant infected in human MT4 cells assessed as inhibition of virus-induced cytopathic effect after 5 days by MTT assay; assay type: functional, organism-based; details: Human immunodeficiency virus 1, 3B, MT4, 120 h
[10] = system: Human immunodeficiency virus 1; test: Antiviral activity against HIV1 3B harboring reverse transcriptase RES056 double mutant infected in human MT4 cells assessed as inhibition of virus-induced cytopathic effect after 5 days by MTT assay; assay type: functional, organism-based; details: Human immunodeficiency virus 1, 3B, MT4, 120 h
[11] = system: Human immunodeficiency virus 1; test: Antiviral activity against HIV1 3B harboring reverse transcriptase Y188L mutant infected in human MT4 cells assessed as inhibition of virus-induced cytopathic effect after 5 days by MTT assay; assay type: functional, organism-based; details: Human immunodeficiency virus 1, 3B, MT4, 120 h
[12] = system: Human immunodeficiency virus 1; test: Antiviral activity against wild type HIV1 3B infected in human MT4 cells assessed as inhibition of virus-induced cytopathic effect after 5 days by MTT assay; assay type: functional, organism-based; details: Human immunodeficiency virus 1, 3B, MT4, 120 h

CC(=O)Nc1ccc(S(=O)(=O)NC2CCC(Nc3nc(Oc4c(C)cc(C#N)cc4C)c4sccc4n3)CC2)cc1 (stereo not given)
EC50 [1]: 35 nM | EC50 [2]: 32 nM | EC50 [3]: 513 nM | CC50 at 120 h [4]: 3730 nM | IC50 [5]: 1040 nM | selectivity ratio [6]: 340 | EC50 [7]: > 3730 nM | EC50 [8]: 562 nM | EC50 [9]: 1210 nM | EC50 [10]: > 3730 nM | EC50 [11]: 903 nM | EC50 [12]: 10 nM

Cc1cc(C#N)cc(C)c1Oc1nc(NC2CCC(NC(=O)c3ccccc3)CC2)nc2ccsc12 (stereo not given)
EC50 [1]: 183 nM | EC50 [2]: 273 nM | EC50 [3]: ≥ 1510 nM | CC50 at 120 h [4]: 3930 nM | selectivity ratio [6]: 294 | EC50 [7]: > 3930 nM | EC50 [8]: > 3920 nM | EC50 [9]: > 3920 nM | EC50 [10]: > 3920 nM | EC50 [11]: > 3920 nM | EC50 [12]: 13 nM

Cc1cc(C#N)cc(C)c1Oc1nc(NC2CCC(NS(=O)(=O)c3ccc(F)cc3)CC2)nc2ccsc12 (stereo not given)
EC50 [1]: 76 nM | EC50 [2]: 103 nM | EC50 [3]: 472 nM | CC50 at 120 h [4]: 3530 nM | selectivity ratio [6]: 383 | EC50 [7]: > 3530 nM | EC50 [8]: 410 nM | EC50 [9]: > 3520 nM | EC50 [10]: > 3520 nM | EC50 [11]: > 3520 nM | EC50 [12]: 9.2 nM

Cc1cc(C#N)cc(C)c1Oc1nc(NC2CCC(NC(=O)c3ccc(C#N)cc3)CC2)nc2ccsc12 (stereo not given)
EC50 [1]: 736 nM | EC50 [2]: ≥ 1440 nM | EC50 [3]: > 2620 nM | CC50 at 120 h [4]: 2620 nM | selectivity ratio [6]: 19 | EC50 [7]: > 2620 nM | EC50 [8]: > 2620 nM | EC50 [9]: > 2620 nM | EC50 [10]: > 2620 nM | EC50 [11]: > 2620 nM | EC50 [12]: 138 nM

Cc1cc(C#N)cc(C)c1Oc1nc(NC2CCC(NS(=O)(=O)c3ccc(Br)cc3)CC2)nc2ccsc12 (stereo not given)
EC50 [1]: 126 nM | EC50 [2]: 131 nM | EC50 [3]: 852 nM | CC50 at 120 h [4]: 5860 nM | selectivity ratio [6]: 231 | EC50 [7]: > 5860 nM | EC50 [8]: 841 nM | EC50 [9]: ≥ 6140 nM | EC50 [10]: 5870 nM | EC50 [11]: 2250 nM | EC50 [12]: 25 nM

Cc1cc(C#N)cc(C)c1Oc1nc(NC2CCC(NC(=O)c3ccc(Br)cc3)CC2)nc2ccsc12 (stereo not given)
EC50 [1]: 370 nM | EC50 [2]: 519 nM | EC50 [3]: > 2850 nM | CC50 at 120 h [4]: 2850 nM | selectivity ratio [6]: 93 | EC50 [7]: > 2850 nM | EC50 [8]: > 2850 nM | EC50 [9]: > 2850 nM | EC50 [10]: > 2850 nM | EC50 [11]: > 2850 nM | EC50 [12]: 30 nM

Cc1cn([C@H]2C[C@H](N=[N+]=[N-])[C@@H](CO)O2)c(=O)[nH]c1=O [ZIDOVUDINE]
EC50 [1]: 17 nM | EC50 [2]: 7.8 nM | EC50 [3]: 6.3 nM | CC50 at 120 h [4]: > 7480 nM | selectivity ratio [6]: > 664 | EC50 [7]: 8 nM | EC50 [8]: 5.4 nM | EC50 [9]: 5.3 nM | EC50 [10]: 11 nM | EC50 [11]: 8 nM

Cc1cc(C#N)cc(C)c1Oc1nc(NC2CCC(NS(=O)(=O)c3cccc(C(F)(F)F)c3)CC2)nc2ccsc12 (stereo not given)
EC50 [1]: 642 nM | EC50 [2]: 569 nM | EC50 [3]: ≥ 4340 nM | CC50 at 120 h [4]: 6680 nM | selectivity ratio [6]: 78 | EC50 [7]: > 6680 nM | EC50 [8]: ≥ 4090 nM | EC50 [9]: > 6690 nM | EC50 [10]: > 6690 nM | EC50 [11]: > 6690 nM | EC50 [12]: 86 nM

Cc1cc(C#N)cc(C)c1Oc1nc(NC2CCC(NC(=O)c3cccc(C(F)(F)F)c3)CC2)nc2ccsc12 (stereo not given)
EC50 [1]: ≥ 1330 nM | EC50 [2]: > 3240 nM | EC50 [3]: > 3240 nM | CC50 at 120 h [4]: 3240 nM | selectivity ratio [6]: 17 | EC50 [7]: > 3240 nM | EC50 [8]: > 3240 nM | EC50 [9]: > 3240 nM | EC50 [10]: > 3240 nM | EC50 [11]: > 3240 nM | EC50 [12]: 196 nM

Cc1cc(C#N)cc(C)c1Oc1nc(Nc2ccc(C#N)cc2)nc(N)c1Br [ETRAVIRINE]
EC50 [2]: 3.4 nM | EC50 [3]: 19 nM | CC50 at 120 h [4]: 2180 nM | EC50 [8]: 9.7 nM | EC50 [9]: 23 nM | EC50 [10]: 26 nM | EC50 [11]: 20 nM | EC50 [12]: 2.8 nM

Cc1cc(C#N)cc(C)c1Oc1nc(NC2CCC(NC(=O)c3ccc(F)cc3)CC2)nc2ccsc12 (stereo not given)
EC50 [1]: 230 nM | EC50 [2]: 478 nM | EC50 [3]: > 3180 nM | CC50 at 120 h [4]: 3180 nM | selectivity ratio [6]: 121 | EC50 [7]: > 3180 nM | EC50 [8]: > 3180 nM | EC50 [9]: > 3180 nM | EC50 [10]: > 3180 nM | EC50 [11]: > 3180 nM | EC50 [12]: 26 nM

Cc1cc(C#N)cc(C)c1Oc1nc(NC2CCC(NS(=O)(=O)c3ccc(C#N)cc3)CC2)nc2ccsc12 (stereo not given)
EC50 [1]: 45 nM | EC50 [2]: 70 nM | EC50 [3]: 428 nM | CC50 at 120 h [4]: 9290 nM | IC50 [5]: 1140 nM | selectivity ratio [6]: 1310 | EC50 [7]: > 9290 nM | EC50 [8]: 424 nM | EC50 [9]: 3580 nM | EC50 [10]: > 9280 nM | EC50 [11]: 675 nM | EC50 [12]: 7.1 nM
